These results are taken from US11731946B2, “Broad spectrum antivirulence, anti-persistence compounds” (priority 2017, dated 2023).

T1 sequence (Q9I4X0 91-332): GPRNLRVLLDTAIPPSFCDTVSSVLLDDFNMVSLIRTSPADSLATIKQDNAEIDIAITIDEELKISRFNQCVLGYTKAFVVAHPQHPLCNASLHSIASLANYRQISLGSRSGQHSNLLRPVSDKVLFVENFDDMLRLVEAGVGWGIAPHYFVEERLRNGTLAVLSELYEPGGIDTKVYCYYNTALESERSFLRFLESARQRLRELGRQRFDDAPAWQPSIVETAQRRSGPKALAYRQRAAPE

One data set has as its system Caco2 intestinal epithelial cells. The data set can be described thus: Survival of Caco2 cells after compound exposure. The data set is classed as cell-based. Particulars: 25 μM, 3 hours exposure.
As to `N#Cc1ccc(NC(=O)CC(=O)Nc2ccc([N+](=O)[O-])cc2)cc1` [Compound 65], the “toxicity to Caco2 (survival)” value is given as “not toxic”.
With `N#Cc1ccc(NC(=O)CC(=O)Nc2ccc(I)cc2)cc1` [Compound 71], the “toxicity to Caco2 (survival)” value was “not toxic”.

The subject of a further data set is MvfR regulon. The data set can be described thus: Quantification of pyocyanin (OD520nm of chloroform-extracted cultures). To be noted: Pseudomonas aeruginosa, read-out: IC50 pyocyanin (μM). The data set is classed as cell-based, P. aeruginosa.
In the case of `Cc1cc(F)ccc1NCC(=O)Nc1ccc(C#N)cc1` [Compound 1], the IC50 stood at 70.6 µM.
Take `N#Cc1ccc(NC(=O)CC(=O)Nc2ccc(I)cc2)cc1` [Compound 71]: the IC50 is 1.63 µM.

Staying with this data set, now noted: Pseudomonas aeruginosa, read-out: pyocyanin @1 uM (%), compound at 1 uM.
Regarding `N#Cc1ccc(NC(=O)CC(=O)Nc2ccc([N+](=O)[O-])cc2)cc1` [Compound 65], the activity at 1 µM worked out at 80.3%.

The same data set, now with this note: Pseudomonas aeruginosa, read-out: pyocyanin @10 uM (%), compound at 10 uM.
For the molecule `N#Cc1ccc(NC(=O)CC(=O)Nc2ccc([N+](=O)[O-])cc2)cc1` [Compound 65], the activity at 10 µM worked out at 29.7%.

Staying with this data set, now noted: Pseudomonas aeruginosa, read-out: pyocyanin @50 uM (%), compound at 50 uM.
As to `Cc1cc(F)ccc1NCC(=O)Nc1ccc(C#N)cc1` [Compound 1], the activity at 50 µM stood at 66.8%.
For the molecule `N#Cc1ccc(NC(=O)CC(=O)Nc2ccc([N+](=O)[O-])cc2)cc1` [Compound 65], the activity at 50 µM turned out to be 3.4%.
On the same count and under the same terms, the figure for `N#Cc1ccc(NC(=O)CC(=O)Nc2ccc(I)cc2)cc1` [Compound 71] is 13.3%.

Still in this data set, the particulars now being: read-out: IC50 pyocyanin.
In the case of `N#Cc1ccc(NC(=O)CC(=O)Nc2ccc([N+](=O)[O-])cc2)cc1` [Compound 65], the IC50 stood at 4.48 µM.

The next data set relates to MvfR regulon. In words: pqsA gene expression (pqsA-GFP reporter). The class given is cell-based, P. aeruginosa. Particulars: Pseudomonas aeruginosa, read-out: IC50 pqsA (μM).
Take `Cc1cc(F)ccc1NCC(=O)Nc1ccc(C#N)cc1` [Compound 1]: the IC50 stood at 20.2 µM.
On the same count and under the same terms, the value for `N#Cc1ccc(NC(=O)CC(=O)Nc2ccc([N+](=O)[O-])cc2)cc1` [Compound 65] was 2.54 µM.
Same read-out and setting: the value for `N#Cc1ccc(NC(=O)CC(=O)Nc2ccc(I)cc2)cc1` [Compound 71] was 0.72 µM.

The same data set, now with this note: Pseudomonas aeruginosa, read-out: pqsA @10 uM (%), compound at 10 uM.
On to `N#Cc1ccc(NC(=O)CC(=O)Nc2ccc(I)cc2)cc1` [Compound 71], for which the activity at 10 µM is 13.3%.

Staying with this data set, now noted: Pseudomonas aeruginosa, read-out: pqsA @50 uM (%), compound at 50 uM.
`Cc1cc(F)ccc1NCC(=O)Nc1ccc(C#N)cc1` [Compound 1]: the activity at 50 µM came out at 32.4%.
On the same count and under the same terms, the figure for `N#Cc1ccc(NC(=O)CC(=O)Nc2ccc([N+](=O)[O-])cc2)cc1` [Compound 65] is 9.5%; for `N#Cc1ccc(NC(=O)CC(=O)Nc2ccc(I)cc2)cc1` [Compound 71] it is 6.03%.

The test system of a further data set is MvfR regulon. In words: LC/MS quantification of HAQs and related molecules in bacterial culture supernatants. The data set is classed as cell-based, P. aeruginosa. Particulars: Pseudomonas aeruginosa, PA14, read-out: IC50 2-AA (μM).
With `N#Cc1ccc(NC(=O)CC(=O)Nc2ccc([N+](=O)[O-])cc2)cc1` [Compound 65], the IC50 was 8.95 µM.

The data set is the same for the next values; noted with them: Pseudomonas aeruginosa, PA14, read-out: IC50 DHQ (μM).
For `N#Cc1ccc(NC(=O)CC(=O)Nc2ccc([N+](=O)[O-])cc2)cc1` [Compound 65], the IC50 came to 11.3 µM.

The data set is the same for the next values; noted with them: Pseudomonas aeruginosa, PA14, read-out: IC50 HHQ (μM).
With `Cc1cc(F)ccc1NCC(=O)Nc1ccc(C#N)cc1` [Compound 1], the IC50 worked out at 10.4 µM.
Same read-out and setting: the figure for `N#Cc1ccc(NC(=O)CC(=O)Nc2ccc([N+](=O)[O-])cc2)cc1` [Compound 65] is 21.2 µM.

Staying with this data set, now noted: Pseudomonas aeruginosa, PA14, read-out: IC50 PQS (μM).
Consider `Cc1cc(F)ccc1NCC(=O)Nc1ccc(C#N)cc1` [Compound 1], for which the IC50 was 15.1 µM.
Same read-out and setting: the figure for `N#Cc1ccc(NC(=O)CC(=O)Nc2ccc([N+](=O)[O-])cc2)cc1` [Compound 65] is 23 µM.

The data set is the same for the next values; noted with them: Pseudomonas aeruginosa, read-out: 2-AA @50 uM.
Take `Cc1cc(F)ccc1NCC(=O)Nc1ccc(C#N)cc1` [Compound 1]: the activity at 50 µM turned out to be 101%.
Still for that read-out and setting: the value for `N#Cc1ccc(NC(=O)CC(=O)Nc2ccc([N+](=O)[O-])cc2)cc1` [Compound 65] was 6.94%.

Still in this data set, the particulars now being: Pseudomonas aeruginosa, read-out: AA @50 uM.
Turning to `Cc1cc(F)ccc1NCC(=O)Nc1ccc(C#N)cc1` [Compound 1], the activity at 50 µM was 100%.

Staying with this data set, now noted: Pseudomonas aeruginosa, read-out: DHQ @50 uM.
Consider `Cc1cc(F)ccc1NCC(=O)Nc1ccc(C#N)cc1` [Compound 1], for which the activity at 50 µM came to 135%.
Consider `N#Cc1ccc(NC(=O)CC(=O)Nc2ccc([N+](=O)[O-])cc2)cc1` [Compound 65], for which the activity at 50 µM turned out to be 12.3%.

Staying with this data set, now noted: Pseudomonas aeruginosa, read-out: HHQ @50 uM (%).
Regarding `Cc1cc(F)ccc1NCC(=O)Nc1ccc(C#N)cc1` [Compound 1], the activity at 50 µM was found to be 2.67%.
`N#Cc1ccc(NC(=O)CC(=O)Nc2ccc([N+](=O)[O-])cc2)cc1` [Compound 65]: the activity at 50 µM is 2.88%.

Still in this data set, the particulars now being: Pseudomonas aeruginosa, read-out: HQNO @50 uM (%).
As for `Cc1cc(F)ccc1NCC(=O)Nc1ccc(C#N)cc1` [Compound 1], the activity at 50 µM was determined as 17%.
On the same count and under the same terms, the figure for `N#Cc1ccc(NC(=O)CC(=O)Nc2ccc([N+](=O)[O-])cc2)cc1` [Compound 65] is 18.4%.

The same data set, now with this note: Pseudomonas aeruginosa, read-out: IC50 AA (increase; μM).
On to `N#Cc1ccc(NC(=O)CC(=O)Nc2ccc([N+](=O)[O-])cc2)cc1` [Compound 65], for which the IC50 was 34 µM.

The data set is the same for the next values; noted with them: Pseudomonas aeruginosa, read-out: IC50 HQNO (μM).
For `Cc1cc(F)ccc1NCC(=O)Nc1ccc(C#N)cc1` [Compound 1], the IC50 was 20.3 µM.
Turning to `N#Cc1ccc(NC(=O)CC(=O)Nc2ccc([N+](=O)[O-])cc2)cc1` [Compound 65], the IC50 amounted to 23.3 µM.

Staying with this data set, now noted: Pseudomonas aeruginosa, read-out: PQS @50 uM (%).
For the molecule `Cc1cc(F)ccc1NCC(=O)Nc1ccc(C#N)cc1` [Compound 1], the activity at 50 µM was 10.5%.
Still for that read-out and setting: the value for `N#Cc1ccc(NC(=O)CC(=O)Nc2ccc([N+](=O)[O-])cc2)cc1` [Compound 65] was 6.32%.

A further data set addresses T1, MvfR (Pseudomonas aeruginosa, UniProt Q9I4X0).
T1 construct: made in house
The data set can be described thus: Surface plasmon resonance (SPR) binding to purified MvfR co-inducer binding domain. Also noted: species or system P. aeruginosa. Particulars: SPR. As for the experimental part: Compounds identified to interfere with MvfR were confirmed for the direct physical interaction with this protein. Using SPR, the percentage of compound's binding to the purified MvfR protein was analyzed and used to determine the binding parameters (KD, kon and koff)—thus determining the kinetic of interaction with MvfR.
The recombinant MvfR co-inducer binding domain was purified using Ni-NTA chromatography, as previously reported (see e.g., Xiao et al, Microbiology, 2006, 152:1679-1686; Starkey et al, PLoS Pathog. 2014, 10:e1004321; and Kefala et al, Acta. Crystallogr. Sect. F. Struct. Biol. Cryst. Commun. 2012, 68:695-697). The purified protein was immobilized with the amine coupling method at a target level of 5000 RU on Chip. SPR was performed according to previously reported procedures (see e.g., Starkey et al, PLoS Pathog. 2014, 10:e1004321; Maura et al, ACS Chemical Biology, 2017, 12:1435-1443; and Kitao et al, MBIO, in press). […] Table 3 lists the steady-state KD data measured by SPR.
Take `Cc1cc(F)ccc1NCC(=O)Nc1ccc(C#N)cc1` [Compound 1]: the “Signal Intensity Rmax” value was determined as 23.41.
For `N#Cc1ccc(NC(=O)CC(=O)Nc2ccc([N+](=O)[O-])cc2)cc1` [Compound 65], the “Signal Intensity Rmax” value is reported as 29.51.
With `N#Cc1ccc(NC(=O)CC(=O)Nc2ccc(I)cc2)cc1` [Compound 71], the “Signal Intensity Rmax” value is 30.74 and the “binding intensity relative to parent Compound 1” value came out at 40 times.

Still in this data set, the particulars now being: Steady State Binding Affinity KD (μM), SPR, steady state.
Turning to `Cc1cc(F)ccc1NCC(=O)Nc1ccc(C#N)cc1` [Compound 1], the Kd worked out at 9.18 µM. This lies in the single-digit micromolar range.
`N#Cc1ccc(NC(=O)CC(=O)Nc2ccc([N+](=O)[O-])cc2)cc1` [Compound 65] gave a Kd of 0.399 µM.
On the same count and under the same terms, the value for `N#Cc1ccc(NC(=O)CC(=O)Nc2ccc(I)cc2)cc1` [Compound 71] was 0.259 µM.

Still in this data set, the particulars now being: Steady State Binding Affinity KD [M], SPR, steady state.
Consider `Cc1cc(F)ccc1NCC(=O)Nc1ccc(C#N)cc1` [Compound 1], for which the Kd came to 9.19 µM.
In turn, `N#Cc1ccc(NC(=O)CC(=O)Nc2ccc([N+](=O)[O-])cc2)cc1` [Compound 65] came in with a Kd of 0.399 µM. Compared with the last molecule, the Kd is about 23-fold lower.
For `N#Cc1ccc(NC(=O)CC(=O)Nc2ccc(I)cc2)cc1` [Compound 71], the Kd came out at 0.259 µM.

The data set is the same for the next values; noted with them: mean KD value, SPR; mean over the compounds named.
With `N#Cc1ccc(NC(=O)CC(=O)Nc2ccc(I)cc2)cc1` [Compound 71], the Kd is approximately 0.25 µM.
